Test results as given in US20250051307A1, “SALT OF 3,4-DIHYDROISOQUINOLINE COMPOUND AND USE THEREOF” (CSPC ZHONGQI PHARMACEUTICAL TECHNOLOGY(SHIJIAZHUANG) CO., …, priority 2021, published 2025).
Where two headings read alike, the source gives them in different places. Marks after values point to notes of the source that are not given here.

What was measured:
[1] = Solubility determination in water and biological media; format: physicochemical; details: for solubility at 24 h: thermodynamic from solid, 37° C., solubility is in free state; for Solubility compared with the free base sample: water and FassIF media, vs Preparation Example 1
Text: • FaSSIF: human fasted state simulated intestinal fluid; FeSSIF: human fed state simulated intestinal fluid; SGF: human fasted state simulated gastric fluid.

[2] = Solid stability of crystal forms under different humidity conditions (XRPD); format: physicochemical; details: 7 days
Text: (§1) The samples were subjected to X-ray powder diffraction to investigate the stability of the samples under different conditions, and the results are shown in the following table.

[3] = Solid stability of crystal forms at high temperature (XRPD); format: physicochemical; details: 60° C., sealed, 7 days
Text: as §1

[4] = Long-term (three months) stability of Crystal Form I; format: physicochemical
[5] = Pharmacokinetic experiment in SD rats; format: in vivo; details: 25 mg/kg by gavage; for Cmax / Tmax / AUC(0-t): male, Sprague-Dawley (SD), rat, po, plasma; for AUC(0-t): read-out: AUC0-24h
Protocol: SD rats (male, 180 g to 200 g, Beijing Vital River Laboratory Animal Technology Co., Ltd.) were administered with the test compounds (solvent: 2% DMSO+98% (0.2 g/mL) hydroxypropyl-β-cyclodextrin, dosing volume: 5 mL/kg) by gavage. Blood was collected from the orbits of the rats at different points in time (0.25, 0.5, 1, 2, 4, 8, 24 h) after administration. The collected whole blood was anticoagulated with heparin sodium and centrifuged at 3000 g to obtain rat plasma samples, and methanol was added thereto to precipitate proteins. The drug concentration in rat plasma after administration was determined by HPLC-MS/MS method. A drug concentration-time curve was plotted and the pharmacokinetic parameters were calculated. Pharmacokinetic behaviors of the compounds after administration in rats were described by means of the parameter estimation of non-compartmental model based on statistical moment theory.

[6] = test system: MV4-11 subcutaneous xenograft; assay: MV4-11 subcutaneous xenograft model, in vivo efficacy; design: species or system NOD-SCID mice; details: for Body Weight Change (%): 11 consecutive days; for d9 Tumor Volume (mm^3): 9th day after administration; for d0 Tumor Volume (mm^3): before grouping for administration, 100 mg/kg group; for RTV (d9): d9 tumor volume/d0 tumor volume; for Tumor Weight: end of experiment; for Tumor Weight / Tumor weight inhibition rate (%): 11 days; for Tumor weight inhibition rate (%): vs vehicle group
Protocol: Experimental female NOD-SCID mice, SPF grade, 4 to 5 weeks, were purchased from Beijing Vital River Laboratory Animal Technology Co., Ltd. The mice were intraperitoneally injected with cyclophosphamide at a dose of 100 mg/kg one day before cell inoculation. The human acute monocytic leukemia cell line MV4-11 (1×10^7/0.1 ml/mouse) was subcutaneously inoculated into forelimb axilla of mice to establish a subcutaneous xenograft model. When the tumor volumes reached about 110 mm^3 (10 days after inoculation), the mice were equally grouped according to the tumor volume, with 5 mice in each group, i.e., vehicle group (2% DMSO+98% (0.2 g/mL) hydroxypropyl-β-cyclodextrin) and test drug groups. For the test drug groups, the dose of administration was 100 mg/kg, the dosing volume was 10 mL/kg, the dosing frequency was BID, the tumor diameters were measured twice per week, and the data was recorded. The mice were administered for 11 consecutive days. When the experiment ended, the tumors were dissected and weighed.
The body weight growth rate, the tumor volume, and the tumor weight inhibition rate were calculated according to the following equations: body weight growth rate=X(Wi-W0)/XW0×100%, where Wi denoted the body weight of a mouse in each test drug group on the n^th day, and W0 denoted the body weight of a mouse in each test drug group at the beginning of administration; tumor volume (V)=½× a× b^2, where a and b denoted the long diameter and the short diameter of a tumor, respectively; d0 denoted before grouping for administration, d9 denoted the 9th day after administration, relative tumor volume (RTV)=d9 tumor volume/d0 tumor volume; tumor weight inhibition rate=(tumor weightvehicle group−tumor weighttest drug group)/tumor weightvehicle group×100%.

[7] = test system: human acute monocytic leukemia cell line MV4-11; assay: MV4-11 MTT cell growth inhibition; format: cell-based
Text: The complete medium required for the culture of human acute monocytic leukemia cell line MV4-11 (Shanghai Cell Bank) for experiment was IMDM (CatNO. 12440-053, gibco) supplemented with 10% FBS (Cat NO. SA311.02, cellmax). […] The experiment reagents included dimethyl sulfoxide (Tianjin Kemiou Chemical Reagent Co., Ltd.) and MTT (THIAZOLYL BLUE TETRAZOLIUM BROMIDE, CAS. NO. 298-93-1, VWR). The control compound GSK3326595 for experiment was homemade or commercially available. The test compound was encapsulated and stored at 4° C.
Dimethyl sulfoxide was used as a vehicle to fully dissolve the test compound, thereby formulating a stock solution at a concentration of 5×10^−2 mol/L. The stock solution was stored at −20° C. With the complete medium as diluent, the test compound was subjected to gradient dilution to afford dilutions at different concentrations for standby application. In a 96-well culture plate, the suspension of the human acute monocytic leukemia cell line MV4-11 in the complete medium, at a volume of 100 μL/well (2×10^3 cells/well), was added. […] The OD value at 550 nm was measured with a microplate reader. […] The cell growth inhibition rate was calculated according to the following equation: […]
According to the inhibition rate at each concentration, the half maximal inhibitory concentration IC50 value was calculated using the SPSS software.

[8] = molecular target: PRMT5 (Homo sapiens (Human), UniProt O14744); assay: Radiometric assay for PRMT5 based on FlashPlate technology; format: biochemical
Sequence of PRMT5 (O14744 whole entry): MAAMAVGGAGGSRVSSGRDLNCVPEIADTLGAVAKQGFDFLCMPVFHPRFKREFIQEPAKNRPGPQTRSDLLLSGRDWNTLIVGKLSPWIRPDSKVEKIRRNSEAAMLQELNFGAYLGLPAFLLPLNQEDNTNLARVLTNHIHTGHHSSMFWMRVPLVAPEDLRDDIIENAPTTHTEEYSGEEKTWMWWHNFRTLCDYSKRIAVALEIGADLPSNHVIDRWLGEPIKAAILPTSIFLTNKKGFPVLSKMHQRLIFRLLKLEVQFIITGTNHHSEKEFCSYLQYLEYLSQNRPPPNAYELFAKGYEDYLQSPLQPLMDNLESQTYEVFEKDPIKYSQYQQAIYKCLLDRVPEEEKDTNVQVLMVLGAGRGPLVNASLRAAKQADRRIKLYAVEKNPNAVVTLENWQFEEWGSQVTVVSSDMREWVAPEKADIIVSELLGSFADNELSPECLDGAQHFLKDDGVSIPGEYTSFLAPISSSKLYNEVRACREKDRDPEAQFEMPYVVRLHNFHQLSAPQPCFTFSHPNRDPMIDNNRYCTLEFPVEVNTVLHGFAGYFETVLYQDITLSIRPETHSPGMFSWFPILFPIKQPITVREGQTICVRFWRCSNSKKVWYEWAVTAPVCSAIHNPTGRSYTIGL
Sequence of PRMT5 (Q9BQA1 whole entry partner): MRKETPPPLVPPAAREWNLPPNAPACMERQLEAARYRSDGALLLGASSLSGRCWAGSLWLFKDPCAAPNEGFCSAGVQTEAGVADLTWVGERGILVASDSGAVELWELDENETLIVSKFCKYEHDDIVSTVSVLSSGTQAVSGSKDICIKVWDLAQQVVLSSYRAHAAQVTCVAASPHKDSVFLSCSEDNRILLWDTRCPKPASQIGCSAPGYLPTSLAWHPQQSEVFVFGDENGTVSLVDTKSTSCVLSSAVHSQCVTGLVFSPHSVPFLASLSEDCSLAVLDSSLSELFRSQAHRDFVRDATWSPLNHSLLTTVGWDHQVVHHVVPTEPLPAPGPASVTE
Protocol: The radiometric assay for PRMT5 based on FlashPlate technology was adopted to determine IC50 of the test compound.
After dissolved in dimethyl sulfoxide respectively, the test compounds were added into an Echo Qualified 384-well plate and diluted to the desired concentrations. The diluted test compounds were transferred from the Echo Qualified 384-well plate to a 384-well reaction plate using an Echo 550 instrument, and dimethyl sulfoxide was transferred into both the control and blank wells. […] At a volume of 15 μL/well, the 1.67× enzyme solution was added into wells of the 384-well reaction plate. […] The reaction plate was centrifuged at 1000 rpm for 1 min, and incubated at room temperature for 15 min. […] From each well of the test plate, 25 μL was measured and transferred to Flashplate and left at room temperature for 1 h. Thereafter, the Flashplate was washed with 0.1% Tween-20 solution three times. Readings were taken with MicroBeta 2. The data was converted into the inhibition rate data. Inhibition rate=(conversion ratecontrol well−conversion ratecompound well)/(conversion ratecontrol well−conversion rateblank well)×100%.

[9] = FaSSIF (human fasted state simulated intestinal fluid), FassIF, read-out: 24 h solubility (mg/mL) FassIF
[10] = SGF (human fasted state simulated gastric fluid), simulated gastric fluid, SGF, read-out: 24 h solubility (mg/mL) SGF
[11] = water, read-out: 24 h solubility (mg/mL) Water
[12] = vs positive control drug GSK3326595

## CON=C(C)C(=O)N1CCC(Nc2cc(C(=O)NC[C@H](O)CN3CCc4ccccc4C3)ncn2)CC1.O=C(O)C[C@H](O)C(=O)O [Example 7]
[1]; [9]
  solubility at 24 h: > 4.7 mg/mL
[1]; [10]
  solubility at 24 h: > 4.8 mg/mL
[1]; [11]
  solubility at 24 h: > 4.9 mg/mL
[1]
  Solubility compared with the free base sample: significantly higher

## CON=C(C)C(=O)N1CCC(Nc2cc(C(=O)NC[C@H](O)CN3CCc4ccccc4C3)ncn2)CC1.O=C(O)C[C@H](O)C(=O)O [Example 3]
[2]; 23° C./33% RH
  Crystal form after storage (XRPD): Crystal Form III
[2]; 25° C./60% RH
  Crystal form after storage (XRPD): Crystal Form III
[2]
  Crystal form under different humidity conditions (conclusion): unchanged

## CON=C(C)C(=O)N1CCC(Nc2cc(C(=O)NC[C@H](O)CN3CCc4ccccc4C3)ncn2)CC1.O=C(O)C(=O)O [Example 11]
[1]; [9]
  solubility at 24 h: > 9.1 mg/mL
[1]; [10]
  solubility at 24 h: > 9.2 mg/mL
[1]; [11]
  solubility at 24 h: > 9.1 mg/mL
[1]
  Solubility compared with the free base sample: significantly higher

## CON=C(C)C(=O)N1CCC(Nc2cc(C(=O)NC[C@H](O)CN3CCc4ccccc4C3)ncn2)CC1.O=C(O)C[C@H](O)C(=O)O [Example 4]
[2]; 23° C./33% RH
  Crystal form after storage (XRPD): Crystal Form IV
[2]; 25° C./60% RH
  Crystal form after storage (XRPD): Crystal Form IV
[2]
  Crystal form under different humidity conditions (conclusion): unchanged

## CON=C(C)C(=O)N1CCC(Nc2cc(C(=O)NC[C@H](O)CN3CCc4ccccc4C3)ncn2)CC1.O=C(O)C[C@H](O)C(=O)O [Example 2]
[2]; 23° C./33% RH
  Crystal form after storage (XRPD): Crystal Form II
[2]; 25° C./60% RH
  Crystal form after storage (XRPD): Crystal Form II
[2]
  Crystal form under different humidity conditions (conclusion): unchanged
[3]
  Crystal form after storage (XRPD): Crystal Form II

## CON=C(C)C(=O)N1CCC(Nc2cc(C(=O)NC[C@H](O)CN3CCc4ccccc4C3)ncn2)CC1.O=C(O)C[C@H](O)C(=O)O [Example 5]
[3]
  Crystal form after storage (XRPD): Crystal Form V

## CON=C(C)C(=O)N1CCC(Nc2cc(C(=O)NC[C@H](O)CN3CCc4ccccc4C3)ncn2)CC1.O=C(O)C[C@H](O)C(=O)O [Example 1]
[4]; 3 months, long-term stability
  Crystal Form after storage: Crystal Form I
  Purity after storage: 99.32%
[4]; before long-term storage
  Initial purity: 99.43%

## CC(=O)N1CCC(Nc2cc(C(=O)NC[C@H](O)CN3CCc4ccccc4C3)ncn2)CC1 [GSK3326595, reference compound]
[5]
  Cmax: 60.3 ng/mL
  Tmax: 2.67 h
  AUC(0-t): 589 ng·h/mL
[6]; 100 mg/kg BID
  Body Weight Change (%): −6.8%
  d9 Tumor Volume (mm^3): 135 ± 43** mm^3
  RTV (d9): 0.8 ± 0.2
  Tumor Weight: 0.1124 ± 0.0764 g
  Tumor weight inhibition rate (%): 84.5%
[6]
  d0 Tumor Volume (mm^3): 165.2 ± 23.1 mm^3
[7]; Homo sapiens, MV4-11, 144 h, MTT on Day 6
  IC50: 6.68 nM

## CON=C(C)C(=O)N1CCC(Nc2cc(C(=O)NC[C@H](O)CN3CCc4ccccc4C3)ncn2)CC1 [Compound of formula (A)]
[5]
  Absorption in rats compared with GSK3326595: better absorbed
  Cmax: 2370 ng/mL
  Tmax: 0.333 h
  AUC(0-t): 4410 ng·h/mL
[8]; PRMT5 5 nM, [3H]-SAM, 25° C. 60 min, read-out: Enzymology (IC50)
  IC50: 31 nM
[8]; [12]
  Inhibitory activity at enzyme level compared with GSK3326595: better inhibitory activities
[6]; 100 mg/kg BID
  Tumor-inhibitory activity in MV4-11 xenografts model: significant tumor-inhibitory activity
  Body Weight Change (%): −6.1%
  d9 Tumor Volume (mm^3): 55.7 ± 19.7 ***## mm^3
  RTV (d9): 0.4 ± 0.1
  Tumor Weight: 0.0648 ± 0.0267 g
  Tumor weight inhibition rate (%): 91.1%
[6]
  d0 Tumor Volume (mm^3): 165.3 ± 27.5 mm^3
[1]; [9]
  solubility at 24 h: 1.7 mg/mL
[1]; [10]
  solubility at 24 h: > 4.4 mg/mL
[1]; [11]
  solubility at 24 h: 0.39 mg/mL
[7]; [12]
  Inhibitory activity at cell level compared with GSK3326595: better inhibitory activities
